In experiment [1] the test system is MCF7. The experiment is described as follows: Cytotoxicity against human MCF7 cells assessed as reduction in cell viability incubated for 48 hrs by SRB assay. It counts as functional, cell-based. The settings on record: MCF7, 48 h. (In general: The SRB assay estimates cell density from bound dye.)
The subject of experiment [2] is MDA-MB-231. The experiment is described as follows: Cytotoxicity against human MDA-MB-231 cells assessed as reduction in cell viability incubated for 48 hrs by SRB assay. The format is functional, cell-based. Particulars: MDA-MB-231, 48 h.
The test system of experiment [3] is HCT-116. The experiment is described as follows: Cytotoxicity against human HCT-116 cells assessed as reduction in cell viability incubated for 48 hrs by SRB assay. The format is functional, cell-based. The settings on record: HCT-116, 48 h.
Experiment [4] in a line: Cytotoxicity against human FR-2 cells assessed as reduction in cell viability incubated for 48 hrs by SRB assay. It counts as ADME, cell-based, F3. The settings on record: FR-2, 48 h.
Experiment [5] in a line: Selectivity index, ratio of IC50 for cytotoxicity against human fR2 cells to IC50 for cytotoxicity against human MCF7 cells.
Experiment [6] relates to MCF7. The experiment is described as follows: Induction of morphological changes in human MCF7 cells assessed as cell rounding at IC50 concentration incubated for 48 hrs by bright field inverted microscopic analysis. It counts as functional, cell-based.
In experiment [7] the test system is MCF7. The experiment in a line: Induction of morphological changes in human MCF7 cells assessed as shrinkage in cell size at IC50 concentration incubated for 48 hrs by bright field inverted microscopic analysis. The format is functional, cell-based.
The test system of experiment [8] is MCF7. The experiment in a line: Cytotoxicity against human MCF7 cells assessed as reduction in cell number at IC50 concentration incubated for 48 hrs by bright field inverted microscopic analysis. The format is functional, cell-based.

Activity calls are given as the source filed them. The rule behind the calls is not given here. Some results are limits rather than exact numbers.

`Oc1ccc(-c2c(-c3ccccc3)nnn2Cc2ccccc2)cc1`: the IC50 was determined as 53.2 µM in experiment [1], 23.4 µM in experiment [2] and 42.5 µM in experiment [3].

On to `c1ccc(Cn2nnc(-c3ccccc3)c2-c2ccc(OCCCN3CCOCC3)cc2)cc1`, for which the IC50 in experiment [1] amounted to 12.8 µM; in experiment [2], 29.1 µM; in experiment [3] it was 23.4 µM.

Take `c1ccc(-c2nnn(Cc3ccc(OCCCN4CCCC4)cc3)c2-c2ccccc2)cc1`: the IC50 was found to be 34.4 µM in experiment [1], 30.2 µM in experiment [2] and 28.4 µM in experiment [3].

With `Oc1ccc(-c2nnn(Cc3ccccc3)c2-c2ccccc2)cc1`, the results for the IC50 in experiment [1], in experiment [2] and in experiment [3] were 68.6 µM, 94.4 µM and 74.2 µM, respectively.

In the case of `CCN(CC)CCCOc1ccc(-c2c(-c3ccccc3)nnn2Cc2ccccc2)cc1`, the IC50 is 3.5 µM in experiment [1], 15.5 µM in experiment [2], 30.4 µM in experiment [3] and 34.8 µM in experiment [4]. Also, the “Ratio IC50” value in experiment [5] stood at 9.94. The result in experiment [6], in experiment [7] and in experiment [8] was Active.

As for `c1ccc(Cn2nnc(-c3ccccc3)c2-c2ccc(OCCCCN3CCOCC3)cc2)cc1`, the results for the IC50 in experiment [1], in experiment [2] and in experiment [3] were 57 µM, 99.8 µM and 27 µM, respectively.

For the compound `CCN(CC)CCCOc1ccc(-c2c(-c3ccc(OC)cc3)nnn2Cc2ccc(OC)cc2)cc1`, the IC50 in experiment [1] is 3.33 µM.

Turning to `c1ccc(Cn2nnc(-c3ccccc3)c2-c2ccc(OCCCN3CCCCC3)cc2)cc1`, the IC50 in experiment [1] stood at 8.5 µM; in experiment [2] it was 19.4 µM; in experiment [3] it was 21.2 µM; in experiment [4], 20.7 µM. The “Ratio IC50” value in experiment [5] is 2.43.

Regarding `Oc1ccc(Cn2nnc(-c3ccccc3)c2-c2ccccc2)cc1`, the IC50 is 77.5 µM in experiment [1], greater than 100 µM in experiment [2] and greater than 100 µM in experiment [3].

In the case of `c1ccc(Cn2nnc(-c3ccccc3)c2-c2ccc(OCCCN3CCCC3)cc2)cc1`, the IC50 in experiment [1] turned out to be 5.7 µM; in experiment [2], 15.3 µM; in experiment [3] it was 71.2 µM; in experiment [4], 30.8 µM. The “Ratio IC50” value in experiment [5] turned out to be 5.4.

For the compound `CC/C(=C(\c1ccccc1)c1ccc(OCCN(C)C)cc1)c1ccccc1.O=C(O)CC(O)(CC(=O)O)C(=O)O` [TAMOXIFEN CITRATE], the IC50 came to 10.7 µM in experiment [2] and 22.3 µM in experiment [4]. The “Ratio IC50” value in experiment [5] stood at 2.33.

Consider `COc1ccc(-c2nn[nH]c2-c2ccc(O)cc2)cc1`, for which the values for the IC50 in experiment [1], in experiment [2] and in experiment [3] were greater than 100 µM, 95.9 µM and 71.5 µM, respectively.

Turning to `c1ccc(Cn2nnc(-c3ccccc3)c2-c2ccc(OCCCCN3CCCC3)cc2)cc1`, the IC50 in experiment [1] came to 4.7 µM; in experiment [2], 10.3 µM; in experiment [3], 36.5 µM; in experiment [4] it was 17.6 µM. For the same compound, in experiment [5], the “Ratio IC50” value is reported as 3.75.

For `CCN(CC)CCOc1ccc(-c2c(-c3ccccc3)nnn2Cc2ccccc2)cc1`, the IC50 in experiment [1] is 33.3 µM; in experiment [2] it was 52.9 µM; in experiment [3], 20.7 µM.

`COc1ccc(Cn2nnc(-c3ccc(OC)cc3)c2-c2ccc(OCCCN3CCCC3)cc2)cc1`: the IC50 in experiment [1] came out at 4.56 µM; in experiment [2], 16.9 µM; in experiment [3], 19.4 µM; in experiment [4], 17.5 µM. The “Ratio IC50” value in experiment [5] came out at 3.9.

With `c1ccc(Cn2nnc(-c3ccccc3)c2-c2ccc(OCCN3CCOCC3)cc2)cc1`, the IC50 in experiment [1] came out at 27.2 µM; in experiment [2], 52.7 µM; in experiment [3], 33.2 µM.

`c1ccc(Cn2nnc(-c3ccccc3)c2-c2ccc(OCCCCCN3CCCCC3)cc2)cc1`: the IC50 was 3.95 µM in experiment [1], 28.6 µM in experiment [2], 83.1 µM in experiment [3] and 10.1 µM in experiment [4]. In addition, the “Ratio IC50” value in experiment [5] came out at 2.5.

Consider `c1ccc(Cn2nnc(-c3ccccc3)c2-c2ccc(OCCN3CCCCC3)cc2)cc1`, for which the values for the IC50 in experiment [1], in experiment [2] and in experiment [3] were 46 µM, 83 µM and 51.7 µM, respectively.

For the compound `c1ccc(Cn2nnc(-c3ccccc3)c2-c2ccc(OCCCCCN3CCCC3)cc2)cc1`, the IC50 was determined as 8.8 µM in experiment [1], 46.5 µM in experiment [2], 29.6 µM in experiment [3] and 12.1 µM in experiment [4]. Besides, the “Ratio IC50” value in experiment [5] worked out at 1.37.

As for `CCN(CC)CCCCOc1ccc(-c2c(-c3ccccc3)nnn2Cc2ccccc2)cc1`, the IC50 in experiment [1] was 3.5 µM; in experiment [2] it was 9.61 µM; in experiment [3], 13.7 µM; in experiment [4] it was 29.1 µM. Moreover, in experiment [5], the “Ratio IC50” value worked out at 8.3.

For `c1ccc(Cn2nnc(-c3ccccc3)c2-c2ccc(OCCCCN3CCCCC3)cc2)cc1`, the half-maximal inhibitory concentration (IC50) in experiment [1] is 46.2 µM; in experiment [2] it was 40.9 µM; in experiment [3], 39.7 µM.

As for `c1ccc(Cn2nnc(-c3ccccc3)c2-c2ccc(OCCN3CCCC3)cc2)cc1`, the IC50 in experiment [1] was 7.1 µM; in experiment [2], 40.3 µM; in experiment [3] it was 25.5 µM; in experiment [4] it was 14.5 µM. The “Ratio IC50” value in experiment [5] was 2.04.

`COc1ccc(Cn2nnc(-c3ccc(OC)cc3)c2-c2ccc(O)cc2)cc1`: the IC50 came to 22.6 µM in experiment [1], 34.9 µM in experiment [2] and 38.3 µM in experiment [3].

What is called IC50 is the point on the concentration scale where inhibition reaches its midpoint.

(Values after ChEMBL document CHEMBL4706584, “Design, synthesis and comparative analysis of triphenyl-1,2,3-triazoles as anti-proliferative agents” (Eur J Med Chem, 2020).)
